Results: ChEMBL document CHEMBL1201862, “PubChem BioAssay data set” (2004)
Active and inactive are the calls of the source.

Key:
[1] = biological target: T1, Melanin-concentrating hormone receptor 1 (Homo sapiens, UniProt Q99705); experiment: Late-stage fluorescence-based counterscreen for antagonists of the G-protein coupled receptor 7 (GPR7): cell-based dose response assay to identify antagonists of the melanin-concentrating hormone receptor 1 (MCHR1). [Related pubchem assays (depositor defined):AID1861, AID1880, AID1952, AID2148, AID2251, AID2257, AID485339]; type: functional
T1 sequence (Q99705 whole entry): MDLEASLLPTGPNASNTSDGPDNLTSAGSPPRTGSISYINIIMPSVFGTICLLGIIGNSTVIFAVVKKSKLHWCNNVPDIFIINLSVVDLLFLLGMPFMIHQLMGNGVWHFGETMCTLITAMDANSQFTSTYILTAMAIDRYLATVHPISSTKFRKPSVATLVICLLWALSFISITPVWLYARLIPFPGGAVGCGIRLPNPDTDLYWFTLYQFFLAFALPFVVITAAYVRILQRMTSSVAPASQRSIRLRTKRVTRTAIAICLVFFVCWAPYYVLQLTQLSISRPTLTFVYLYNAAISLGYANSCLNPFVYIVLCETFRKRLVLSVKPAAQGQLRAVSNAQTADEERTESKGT

Streptococcus = experiment: GAS UMAA2166 growth inhibition – luminescence, BacTiterGlo, counter-screen for streptokinase expression inhibitor project, dose response (AID 1915); type: functional, organism-based;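 note: potency for reduction of bacterial viability or growth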
BJ [2] = experiment: cells; type: functional, cell-based; settings: Homo sapiens
[3] = biological target: T2, Voltage-gated N-type calcium channel alpha-1B subunit/Amyloid beta A4 precursor protein-binding family A member 1 (Homo sapiens, UniProt Q00975+Q02410); type: protein assay
T2 sequence (Q00975 whole entry): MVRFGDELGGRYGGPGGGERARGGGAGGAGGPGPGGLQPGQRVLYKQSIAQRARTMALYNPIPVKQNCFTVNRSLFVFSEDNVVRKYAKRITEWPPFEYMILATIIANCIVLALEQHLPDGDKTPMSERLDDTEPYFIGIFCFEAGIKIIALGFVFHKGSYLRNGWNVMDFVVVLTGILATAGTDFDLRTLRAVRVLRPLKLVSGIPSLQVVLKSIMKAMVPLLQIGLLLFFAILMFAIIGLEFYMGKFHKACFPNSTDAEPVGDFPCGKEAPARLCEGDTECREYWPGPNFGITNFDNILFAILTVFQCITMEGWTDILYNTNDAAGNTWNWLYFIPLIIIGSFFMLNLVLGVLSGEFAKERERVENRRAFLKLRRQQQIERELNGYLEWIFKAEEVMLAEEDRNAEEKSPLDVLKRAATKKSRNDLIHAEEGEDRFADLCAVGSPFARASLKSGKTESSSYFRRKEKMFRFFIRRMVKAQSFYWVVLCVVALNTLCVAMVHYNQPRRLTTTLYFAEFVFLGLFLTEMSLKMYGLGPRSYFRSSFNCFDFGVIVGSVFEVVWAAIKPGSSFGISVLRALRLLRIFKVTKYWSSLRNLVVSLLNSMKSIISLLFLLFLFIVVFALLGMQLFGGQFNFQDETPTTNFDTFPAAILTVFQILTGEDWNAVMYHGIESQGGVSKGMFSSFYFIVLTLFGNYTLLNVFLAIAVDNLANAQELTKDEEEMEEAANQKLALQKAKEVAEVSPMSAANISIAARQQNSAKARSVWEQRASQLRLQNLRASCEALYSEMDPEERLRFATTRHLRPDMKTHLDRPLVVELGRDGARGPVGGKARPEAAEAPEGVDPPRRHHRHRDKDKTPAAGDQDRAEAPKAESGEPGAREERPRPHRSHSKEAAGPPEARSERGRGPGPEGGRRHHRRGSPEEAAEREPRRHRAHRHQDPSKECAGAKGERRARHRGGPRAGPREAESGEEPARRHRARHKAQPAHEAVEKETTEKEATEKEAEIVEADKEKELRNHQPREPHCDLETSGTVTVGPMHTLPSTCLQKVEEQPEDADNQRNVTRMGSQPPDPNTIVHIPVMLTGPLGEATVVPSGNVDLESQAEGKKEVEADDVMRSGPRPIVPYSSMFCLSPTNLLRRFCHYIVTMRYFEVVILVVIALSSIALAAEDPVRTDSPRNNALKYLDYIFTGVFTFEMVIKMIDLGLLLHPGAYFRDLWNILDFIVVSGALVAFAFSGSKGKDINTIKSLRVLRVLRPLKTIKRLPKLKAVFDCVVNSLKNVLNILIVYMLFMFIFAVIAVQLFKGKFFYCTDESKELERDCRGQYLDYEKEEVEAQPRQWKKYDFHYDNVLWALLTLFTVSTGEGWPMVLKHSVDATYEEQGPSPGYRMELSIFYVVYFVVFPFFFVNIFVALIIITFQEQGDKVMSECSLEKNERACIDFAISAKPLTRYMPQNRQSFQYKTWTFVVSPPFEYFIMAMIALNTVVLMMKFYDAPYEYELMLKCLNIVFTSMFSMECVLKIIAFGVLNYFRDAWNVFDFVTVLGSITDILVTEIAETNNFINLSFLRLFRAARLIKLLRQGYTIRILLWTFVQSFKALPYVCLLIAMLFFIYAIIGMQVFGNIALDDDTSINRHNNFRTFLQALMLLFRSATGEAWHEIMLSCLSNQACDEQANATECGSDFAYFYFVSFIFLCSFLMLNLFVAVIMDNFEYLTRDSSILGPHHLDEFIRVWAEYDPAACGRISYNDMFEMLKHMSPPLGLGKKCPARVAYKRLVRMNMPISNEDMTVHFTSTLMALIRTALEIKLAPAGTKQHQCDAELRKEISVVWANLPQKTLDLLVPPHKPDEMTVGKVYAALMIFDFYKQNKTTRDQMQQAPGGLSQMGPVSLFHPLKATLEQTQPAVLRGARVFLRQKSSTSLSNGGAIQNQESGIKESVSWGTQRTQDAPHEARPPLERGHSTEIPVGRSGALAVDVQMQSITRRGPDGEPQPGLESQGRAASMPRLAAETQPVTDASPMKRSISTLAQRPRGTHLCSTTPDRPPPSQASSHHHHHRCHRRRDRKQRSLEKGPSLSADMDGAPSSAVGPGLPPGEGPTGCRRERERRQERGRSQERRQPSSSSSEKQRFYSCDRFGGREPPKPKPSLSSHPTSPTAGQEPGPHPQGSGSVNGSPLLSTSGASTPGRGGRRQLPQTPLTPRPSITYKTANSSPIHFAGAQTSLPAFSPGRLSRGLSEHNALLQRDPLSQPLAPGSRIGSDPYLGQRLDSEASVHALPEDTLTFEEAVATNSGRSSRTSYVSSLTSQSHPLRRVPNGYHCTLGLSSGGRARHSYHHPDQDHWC
T2 sequence (Q02410 whole entry): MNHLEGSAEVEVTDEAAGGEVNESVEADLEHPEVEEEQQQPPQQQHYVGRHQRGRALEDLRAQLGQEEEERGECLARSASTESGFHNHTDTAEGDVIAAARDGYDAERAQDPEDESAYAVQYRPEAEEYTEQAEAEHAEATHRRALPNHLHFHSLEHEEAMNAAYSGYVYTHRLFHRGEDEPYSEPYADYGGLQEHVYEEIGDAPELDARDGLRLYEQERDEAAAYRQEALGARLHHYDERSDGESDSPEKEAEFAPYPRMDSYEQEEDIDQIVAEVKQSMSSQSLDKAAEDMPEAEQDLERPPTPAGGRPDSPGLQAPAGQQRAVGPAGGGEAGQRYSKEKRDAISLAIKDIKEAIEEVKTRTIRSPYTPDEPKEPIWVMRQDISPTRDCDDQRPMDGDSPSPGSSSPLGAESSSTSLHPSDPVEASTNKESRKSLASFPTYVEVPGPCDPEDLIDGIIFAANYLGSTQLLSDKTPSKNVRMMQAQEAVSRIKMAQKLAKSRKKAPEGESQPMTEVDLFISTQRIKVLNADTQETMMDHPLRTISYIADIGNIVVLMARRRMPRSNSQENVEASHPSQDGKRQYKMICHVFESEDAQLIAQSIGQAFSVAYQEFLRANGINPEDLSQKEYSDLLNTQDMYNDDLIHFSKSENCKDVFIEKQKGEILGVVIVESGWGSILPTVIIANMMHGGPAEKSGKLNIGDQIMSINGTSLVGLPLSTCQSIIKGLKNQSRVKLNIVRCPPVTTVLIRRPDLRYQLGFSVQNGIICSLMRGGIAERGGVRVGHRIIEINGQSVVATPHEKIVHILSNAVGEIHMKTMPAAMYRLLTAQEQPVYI

[4] = HEK-293T cell viability reduction – luminescence, B-cell screen hits, cytotoxicity control for BCR NF-kB inhibitor project, dose response (AID 489021); type: functional, cell-based;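 note: HEK-293T cells carrying an NF-kB luciferase reporter; cells exposed to compound for about 14 hours before viability readout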
BJ [5] = experiment: BJ-TERT fibroblast viability loss – cell-based, RAS-independent, luminescence, dose response (AID 1933); type: functional; settings: Homo sapiens
[6] = Luminescence Cell-Based Dose Retest to Confirm Inhibitors of Cancer Stem Cells. [Related pubchem assays (depositor defined):AID2717, AID2721]; type: functional; settings: Homo sapiens
BJ [7] = experiment: BJ-TERT-LT-ST fibroblast viability loss – cell-based, RAS-independent, luminescence, dose response (AID 1935); type: functional; settings: Homo sapiens;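 note: BJ fibroblasts immortalized with TERT plus LT and ST oncogenes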
Streptokinase A = biological target: T3, Streptokinase A (Streptococcus pyogenes serotype M1, UniProt P10520); experiment: viability-normalized secreted streptokinase activity reduction – plasminogen activation absorbance, OD405, dose response (AID 1914); type: functional, Streptococcus pyogenes M1 GAS;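 note: secreted streptokinase activity via plasminogen activation per viability signal from cell pellet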
T3 sequence (P10520 whole entry): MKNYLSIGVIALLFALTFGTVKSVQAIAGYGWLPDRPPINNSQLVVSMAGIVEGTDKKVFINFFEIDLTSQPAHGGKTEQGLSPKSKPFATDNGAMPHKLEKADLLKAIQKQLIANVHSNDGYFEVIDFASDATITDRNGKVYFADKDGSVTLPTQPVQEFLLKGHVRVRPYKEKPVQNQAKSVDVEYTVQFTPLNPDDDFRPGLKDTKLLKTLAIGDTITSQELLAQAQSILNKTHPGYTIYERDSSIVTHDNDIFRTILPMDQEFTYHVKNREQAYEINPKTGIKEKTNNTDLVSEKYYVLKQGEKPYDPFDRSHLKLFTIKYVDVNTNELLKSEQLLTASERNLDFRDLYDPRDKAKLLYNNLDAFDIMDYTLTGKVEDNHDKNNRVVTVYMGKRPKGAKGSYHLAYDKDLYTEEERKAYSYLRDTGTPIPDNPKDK

[8] = test system: Streptococcus sp. 'group A'; experiment: Streptococcus pyogenes SK(-)GAS viability under kanamycin – luminescence, BacTiterGlo, confirmation, counter-screen for streptokinase expression inhibitor project, dose response (AID 1900); type: functional, organism-based
Galanin receptor type 3 = biological target: T4, Galanin receptor type 3 (Homo sapiens, UniProt O60755); experiment: Fluorescence-based cell-based primary high throughput dose response assay to identify antagonists of the Galanin Receptor 3 (GalR3).; type: functional
T4 sequence (O60755 whole entry): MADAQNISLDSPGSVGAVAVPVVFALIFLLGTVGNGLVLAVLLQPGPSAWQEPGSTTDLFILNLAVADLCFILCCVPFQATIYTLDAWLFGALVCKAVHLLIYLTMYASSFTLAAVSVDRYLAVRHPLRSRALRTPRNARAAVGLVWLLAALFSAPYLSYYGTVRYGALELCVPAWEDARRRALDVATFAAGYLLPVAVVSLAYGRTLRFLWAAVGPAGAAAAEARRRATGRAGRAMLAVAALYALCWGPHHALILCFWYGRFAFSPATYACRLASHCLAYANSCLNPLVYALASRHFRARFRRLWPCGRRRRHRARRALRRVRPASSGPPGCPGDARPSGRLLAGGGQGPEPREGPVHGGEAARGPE

[9] = biological target: T2, Voltage-gated N-type calcium channel alpha-1B subunit/Amyloid beta A4 precursor protein-binding family A member 1; type: protein assay; remark: listed apart in the source
[10] = DRD fibroblast viability loss – cell-based, non-viral oncogenic, luminescence, dose response (AID 1934); type: functional; settings: Homo sapiens
cells = type: functional, cell-based; settings: HEK-CNG
[11] = biological target: T5, Neuropeptides B/W receptor type 1 (Homo sapiens, UniProt P48145); experiment: Fluorescence-based dose response cell-based high throughput screening assay to identify antagonists of the G-protein coupled receptor 7 (GPR7). [Related pubchem assays: 1952 (Screening assay (GPR7 antagonists).), 1880 (Summary AID.)]; type: functional
T5 sequence (P48145 whole entry): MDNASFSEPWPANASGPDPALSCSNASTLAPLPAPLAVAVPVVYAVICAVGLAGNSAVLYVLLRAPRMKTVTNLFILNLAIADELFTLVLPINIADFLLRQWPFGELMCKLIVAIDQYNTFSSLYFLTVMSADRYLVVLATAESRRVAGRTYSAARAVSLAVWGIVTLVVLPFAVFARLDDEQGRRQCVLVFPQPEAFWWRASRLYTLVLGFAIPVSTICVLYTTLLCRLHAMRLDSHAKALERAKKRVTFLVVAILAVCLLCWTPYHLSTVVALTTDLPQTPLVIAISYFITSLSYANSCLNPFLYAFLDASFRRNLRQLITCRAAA

[12] = biological target: T1, Melanin-concentrating hormone receptor 1; experiment: Fluorescence-based counterscreen for antagonists of the G-protein coupled receptor 7 (GPR7): cell-based high throughput dose response assay to identify antagonists of the melanin-concentrating hormone receptor 1 (MCHR1).; type: functional
[13] = A cytotoxicity screen of small molecule inhibitors of the PhoP region in Salmonella typhi identified in the primary screen. [Related pubchem assays: 1850, 1864, 1985 ]; type: functional
Trypsin = Trypsin (Sus scrofa, UniProt P00761); experiment: trypsin protease activity blockade – biochemical, quenched peptide fluorescence, cherry-pick, selectivity assay for Rce1 protease inhibitor project, dose response (AID 488789)
Chain of Trypsin (P00761 whole entry): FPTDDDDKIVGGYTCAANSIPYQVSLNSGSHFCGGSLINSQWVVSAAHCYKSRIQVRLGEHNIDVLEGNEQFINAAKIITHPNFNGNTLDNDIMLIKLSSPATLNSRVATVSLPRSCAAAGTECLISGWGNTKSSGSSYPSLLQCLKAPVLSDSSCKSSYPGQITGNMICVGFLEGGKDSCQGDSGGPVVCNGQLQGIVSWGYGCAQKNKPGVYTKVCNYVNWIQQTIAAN

CAAX prenyl protease 2 = biological target: T6, CAAX prenyl protease 2 (Homo sapiens, UniProt Q9Y256); experiment: inhibition of Ras-converting CAAX protease Rce1 – biochemical, yeast membranes, quenched-peptide fluorescence, cherry-pick, dose response (AID 588849)
T6 sequence (Q9Y256 whole entry): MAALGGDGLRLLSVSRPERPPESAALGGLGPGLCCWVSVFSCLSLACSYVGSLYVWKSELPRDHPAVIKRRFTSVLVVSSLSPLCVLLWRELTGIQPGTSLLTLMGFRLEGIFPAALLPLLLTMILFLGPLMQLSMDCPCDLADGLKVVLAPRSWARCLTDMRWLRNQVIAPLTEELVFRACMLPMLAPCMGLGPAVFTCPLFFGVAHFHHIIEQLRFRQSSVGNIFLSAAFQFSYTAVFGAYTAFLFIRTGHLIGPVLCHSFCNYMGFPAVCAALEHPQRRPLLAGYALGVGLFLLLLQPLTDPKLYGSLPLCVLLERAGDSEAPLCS

[14] = biological target: T7, Calpain-2 catalytic subunit (Sus scrofa, UniProt P43367); experiment: m-calpain protease blockers, concentration series – biochemical, fluorogenic peptide substrate, dose response (AID 1420); type: functional
T7 sequence (P43367 whole entry): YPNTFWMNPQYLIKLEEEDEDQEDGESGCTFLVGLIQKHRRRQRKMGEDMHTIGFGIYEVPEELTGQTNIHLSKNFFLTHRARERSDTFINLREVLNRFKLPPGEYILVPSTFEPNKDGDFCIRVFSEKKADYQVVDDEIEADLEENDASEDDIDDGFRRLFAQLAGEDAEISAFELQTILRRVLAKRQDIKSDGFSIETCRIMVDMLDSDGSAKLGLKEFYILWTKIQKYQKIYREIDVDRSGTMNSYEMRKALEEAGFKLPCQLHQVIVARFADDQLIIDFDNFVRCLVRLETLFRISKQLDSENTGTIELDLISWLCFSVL

[15] = biological target: FAD-linked sulfhydryl oxidase ALR (Homo sapiens, UniProt P55789); experiment: ALR-catalysed DTT oxidation blockers – biochemical, H2O2 detection, luminescence, cherry-pick, dose response (AID 493248)
Chain of FAD-linked sulfhydryl oxidase ALR (P55789 whole entry): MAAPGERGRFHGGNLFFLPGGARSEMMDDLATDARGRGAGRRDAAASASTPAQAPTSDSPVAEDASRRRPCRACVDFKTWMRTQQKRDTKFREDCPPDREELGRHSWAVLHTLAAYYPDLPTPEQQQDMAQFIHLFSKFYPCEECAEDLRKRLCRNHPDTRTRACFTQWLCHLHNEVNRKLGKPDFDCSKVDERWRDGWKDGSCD

[16] = A Cell Based Secondary Assay To Explore Cytotoxicity of Compounds that Sensitize Mycobacterium Tuberculosis to Beta-Lactam Antibiotics.; type: functional
[17] = biological target: T8, Mannose-6-phosphate isomerase (Homo sapiens, UniProt P34949); experiment: MPI inhibition at elevated mannose 6-phosphate – biochemical, fluorescence intensity, high mannose 6-phosphate, primary screen (AID 1220)
T8 sequence (P34949 whole entry): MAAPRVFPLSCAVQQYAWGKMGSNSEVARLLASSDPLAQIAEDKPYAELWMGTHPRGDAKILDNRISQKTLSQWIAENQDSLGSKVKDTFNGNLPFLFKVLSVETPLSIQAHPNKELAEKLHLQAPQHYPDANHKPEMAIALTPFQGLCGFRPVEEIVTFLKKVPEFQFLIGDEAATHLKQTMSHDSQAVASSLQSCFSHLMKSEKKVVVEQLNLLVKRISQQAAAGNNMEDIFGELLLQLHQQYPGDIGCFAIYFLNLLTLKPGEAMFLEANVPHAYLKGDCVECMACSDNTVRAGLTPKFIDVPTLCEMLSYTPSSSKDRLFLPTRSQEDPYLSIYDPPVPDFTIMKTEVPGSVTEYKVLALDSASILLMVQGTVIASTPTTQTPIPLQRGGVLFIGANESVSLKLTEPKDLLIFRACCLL

[18] = biological target: T9, Orexin/Hypocretin receptor type 1 (Homo sapiens, UniProt O43613); experiment: Homogeneous Time Resolved Fluorescence (HTRF)-based cell-based high throughput dose response assay for antagonists of the orexin 1 receptor (OX1R; HCRTR1). [Related pubchem assays (depositor defined):AID434989, AID435008, AID463079, AID485270, AID492963, AID492964, AID492965, AID493232, AID504717, AID504718]; type: functional
T9 sequence (O43613 whole entry): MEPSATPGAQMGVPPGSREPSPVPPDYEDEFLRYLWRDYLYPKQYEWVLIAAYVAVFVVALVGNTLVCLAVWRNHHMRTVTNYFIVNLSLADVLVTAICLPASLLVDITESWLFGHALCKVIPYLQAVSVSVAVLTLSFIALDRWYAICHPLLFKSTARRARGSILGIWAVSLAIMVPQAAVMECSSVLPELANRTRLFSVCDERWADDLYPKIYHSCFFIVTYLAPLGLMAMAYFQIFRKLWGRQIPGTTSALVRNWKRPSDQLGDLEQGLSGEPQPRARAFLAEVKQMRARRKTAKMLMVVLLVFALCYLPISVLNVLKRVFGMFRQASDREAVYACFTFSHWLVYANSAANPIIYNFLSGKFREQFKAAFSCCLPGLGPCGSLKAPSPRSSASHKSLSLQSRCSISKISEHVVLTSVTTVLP

CHO-K1 = experiment: (§1) Counterscreen for antagonists of the orexin 1 receptor (OX1R; HCRTR1): Homogeneous time resolved fluorescence (HTRF)-based cell-based dose response assay to identify antagonists of the parental CHO-K1 cell line. [Related pubchem assays (depositor defined):AID434989, AID435008, AID463079, AID485270, AID492963, AID492964, AID492965, AID493232, AID504699, AID504701]; type: functional; settings: Cricetulus griseus
[19] = biological target: T9, Orexin/Hypocretin receptor type 1; experiment: Fluorescence-based cell-based high throughput dose response assay for antagonists of the orexin 1 receptor (OX1R; HCRTR1). [Related pubchem assays (depositor defined):AID434989, AID435008, AID463079, AID485270, AID492963, AID492964, AID492965, AID493232, AID504717, AID504718]; type: functional
[20] = as §1, with “Fluorescence-based” for “Homogeneous time resolved fluorescence (HTRF)-based”, “cell-based high throughput” for “cell-based”, “CHO” for “CHO-K1”; type: functional

## COc1ccc(Oc2c(-c3cccs3)cnn(-c3ccc(C)cc3)c2=O)cc1
[1]
  IC50: > 20 µM (inactive)

## Cc1ccccc1-c1cc(C(=O)Nc2sc(C(=O)OC(C)C)c(C)c2C#N)c2ccccc2n1
Streptococcus
  EC50: 26 µM (active)
BJ [2]
  EC50: > 150 µM (inconclusive)
[3]
  IC50: > 50 µM (inactive)
[4]
  IC50: 45.6 µM (inactive)
BJ [5]
  EC50: > 150 µM (not active)
[6]
  AC50: 0.246 µM (active)
BJ [7]
  EC50: > 75 µM (inconclusive)
Streptokinase A
  EC50: > 150 µM (not active)
[8]
  EC50: 14.6 µM (active)
Galanin receptor type 3
  IC50: 0.967 µM (active)
[9]
  IC50: 17.9 µM (active)
[10]
  EC50: 42.3 µM (active)
cells
  EC50: > 29.9 µM (inactive)

## Cc1ccc(C(=O)CSc2nnc(COc3ccccc3)o2)cc1
[4]
  IC50: > 80 µM (inactive)

## Cc1ccccc1NC(=O)C1CCCN(c2ncnc3onc(-c4ccc(F)cc4)c23)C1 (centres undefined)
[11]
  IC50: > 43.8 µM (not active)
[12]
  IC50: > 43.8 µM (not active)

## Cc1ccc(S(=O)(=O)Nc2ccc3c(c2)n(C)c(=O)n3C)cc1
[4]
  IC50: > 80 µM (inactive)

## CCN=C(S)Nc1cccc(S(=O)(=O)Nc2ccccc2OC)c1
[13]
  EC50: > 50 µM (active)

## COc1ccc(Oc2c(Cl)cnn(-c3ccc(C(C)(C)C)cc3)c2=O)cc1
[1]
  IC50: 2.7 µM (active)

## CCOc1cc(-c2nc3c(C)cccn3c2NCC2CCCO2)ccc1O.CNC (centres undefined)
Trypsin
  AC50: 12.7 µM (active)
CAAX prenyl protease 2
  AC50: 15.1 µM (active)

## O=C(CCNc1ccccc1)c1cccc([N+](=O)[O-])c1
[14]
  IC50: 14.1 µM (not active)
[15]
  AC50: 5.58 µM (active)
[16]
  CC50: 25.6 µM (active)
[17]
  IC50: 39.5 µM (active)

## CN(Cc1c(C(=O)N/N=C/c2cccc(O)c2)nnn1-c1nonc1N)c1ccccc1
[18]
  IC50: 1.04 µM (active)
CHO-K1
  IC50: > 66.2 µM (inactive)
[19]
  IC50: 5.74 µM (active)
[20]
  IC50: 24.2 µM (inactive)

## Cc1ccc(CN2C(=O)c3ccccc3Sc3ccc(C(=O)NCCCN4CCOCC4)cc32)cc1
[11]
  IC50: 6.89 µM (active)
[12]
  IC50: 10.4 µM (not active)

## COc1ccc(N(C(=O)c2cccnc2)S(=O)(=O)c2cccc([N+](=O)[O-])c2)cc1
[13]
  EC50: > 50 µM (active)

## CC(=O)c1c(N2CCN(c3cccc(Cl)c3)CC2)nc(=S)n(-c2ccccc2)c1C
[13]
  EC50: > 50 µM (active)
